Results reported in US20250114356A1, “INDAZOLE BASED COMPOUNDS AND ASSOCIATED METHODS OF USE” (Arvinas Operations, Inc., priority 2020, published 2025).

What was measured:
[1] = target: T1, G2019S LRRK2 (Homo sapiens, UniProt Q5S007, G2019S); test: LRRK2 degradation assay, G2019S LRRK2-HiBit expressed from plasmid in HEK293 cells; assay type: cell-based; details: HEK293 cells transfected with HiBit-tagged G2019S LRRK2, 24 hours compound incubation
T1 construct: expressed in transfected cells; host or cells: HEK293 (ATCC CRL-1573), transient transfection, ubiquitin promoter
T1 sequence (Q5S007 whole entry G2019S): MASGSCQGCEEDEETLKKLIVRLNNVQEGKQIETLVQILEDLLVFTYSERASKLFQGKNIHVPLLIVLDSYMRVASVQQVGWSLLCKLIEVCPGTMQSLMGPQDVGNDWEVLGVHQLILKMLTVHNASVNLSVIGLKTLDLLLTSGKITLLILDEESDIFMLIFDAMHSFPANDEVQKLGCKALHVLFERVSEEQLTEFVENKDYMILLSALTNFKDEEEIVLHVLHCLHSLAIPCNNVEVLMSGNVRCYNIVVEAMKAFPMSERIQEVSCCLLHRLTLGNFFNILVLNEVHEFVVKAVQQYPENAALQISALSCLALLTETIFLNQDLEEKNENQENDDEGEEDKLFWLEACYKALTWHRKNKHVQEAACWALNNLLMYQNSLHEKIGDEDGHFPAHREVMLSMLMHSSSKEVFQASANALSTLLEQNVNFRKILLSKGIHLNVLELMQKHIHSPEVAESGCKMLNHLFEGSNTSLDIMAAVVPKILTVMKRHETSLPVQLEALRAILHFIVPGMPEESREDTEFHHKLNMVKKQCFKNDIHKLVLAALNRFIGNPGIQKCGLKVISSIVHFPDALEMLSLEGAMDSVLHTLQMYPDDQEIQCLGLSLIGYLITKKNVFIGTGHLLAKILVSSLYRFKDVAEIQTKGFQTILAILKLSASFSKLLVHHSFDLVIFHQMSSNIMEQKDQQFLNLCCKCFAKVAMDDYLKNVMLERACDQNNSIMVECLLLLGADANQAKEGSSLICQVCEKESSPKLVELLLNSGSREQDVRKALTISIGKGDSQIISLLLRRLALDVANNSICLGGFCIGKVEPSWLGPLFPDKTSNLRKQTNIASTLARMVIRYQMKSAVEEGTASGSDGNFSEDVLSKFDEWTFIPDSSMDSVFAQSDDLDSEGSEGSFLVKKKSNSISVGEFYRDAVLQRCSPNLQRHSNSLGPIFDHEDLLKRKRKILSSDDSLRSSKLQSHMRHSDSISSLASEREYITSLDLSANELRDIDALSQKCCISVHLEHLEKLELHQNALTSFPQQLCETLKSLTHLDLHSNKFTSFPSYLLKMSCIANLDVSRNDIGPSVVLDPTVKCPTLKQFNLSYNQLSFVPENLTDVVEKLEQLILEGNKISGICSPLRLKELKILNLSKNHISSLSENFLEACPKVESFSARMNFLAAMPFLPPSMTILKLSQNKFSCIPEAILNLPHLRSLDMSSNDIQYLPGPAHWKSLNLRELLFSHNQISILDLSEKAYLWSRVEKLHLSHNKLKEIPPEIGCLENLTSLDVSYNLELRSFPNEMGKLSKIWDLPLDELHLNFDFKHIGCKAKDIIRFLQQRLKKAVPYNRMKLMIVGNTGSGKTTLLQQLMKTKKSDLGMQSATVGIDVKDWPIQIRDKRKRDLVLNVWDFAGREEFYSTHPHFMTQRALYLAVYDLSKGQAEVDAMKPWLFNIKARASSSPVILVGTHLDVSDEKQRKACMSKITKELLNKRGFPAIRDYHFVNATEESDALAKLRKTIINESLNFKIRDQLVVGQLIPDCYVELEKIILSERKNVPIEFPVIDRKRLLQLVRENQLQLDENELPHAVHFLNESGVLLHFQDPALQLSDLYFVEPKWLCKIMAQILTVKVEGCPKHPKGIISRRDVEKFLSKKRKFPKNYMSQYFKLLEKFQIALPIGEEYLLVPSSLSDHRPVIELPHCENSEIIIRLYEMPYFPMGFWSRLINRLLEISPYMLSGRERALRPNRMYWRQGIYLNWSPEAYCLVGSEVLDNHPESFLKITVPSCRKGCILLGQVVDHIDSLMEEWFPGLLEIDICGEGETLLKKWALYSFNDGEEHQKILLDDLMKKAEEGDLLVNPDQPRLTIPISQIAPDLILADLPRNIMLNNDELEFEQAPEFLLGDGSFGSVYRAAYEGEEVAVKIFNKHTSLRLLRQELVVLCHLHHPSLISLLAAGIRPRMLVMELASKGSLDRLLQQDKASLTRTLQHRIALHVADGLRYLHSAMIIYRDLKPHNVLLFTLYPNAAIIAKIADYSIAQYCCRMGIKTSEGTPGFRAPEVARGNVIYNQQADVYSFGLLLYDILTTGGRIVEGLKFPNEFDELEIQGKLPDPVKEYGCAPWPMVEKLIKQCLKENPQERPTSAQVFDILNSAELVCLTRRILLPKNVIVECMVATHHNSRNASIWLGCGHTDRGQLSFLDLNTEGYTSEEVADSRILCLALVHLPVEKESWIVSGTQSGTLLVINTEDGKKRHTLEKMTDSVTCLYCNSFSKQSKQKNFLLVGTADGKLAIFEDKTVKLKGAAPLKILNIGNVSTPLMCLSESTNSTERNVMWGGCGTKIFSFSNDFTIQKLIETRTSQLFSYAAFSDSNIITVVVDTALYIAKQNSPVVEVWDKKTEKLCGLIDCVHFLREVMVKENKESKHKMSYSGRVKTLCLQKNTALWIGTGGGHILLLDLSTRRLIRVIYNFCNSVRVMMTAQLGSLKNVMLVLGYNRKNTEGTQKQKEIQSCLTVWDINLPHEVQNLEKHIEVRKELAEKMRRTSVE
Experimental: (§1) The assay measures the degradation of wildtype and G2019S LRRK2 tagged with a HiBit tag on the C-terminus of the protein that was expressed from a mammalian expression vector, driven by the ubiquitin promoter in HEK293 cells. Each compound dose-response was repeated on two separate days, on three separate plates each day.
(§2) Plasmid Preparation. Transfection mixes were assembled as follows and incubated for 30 minutes at room temperature. In a 15 mL tube, 5.25 mL Opti-MEM (no additions) was mixed with 17 μL Firefly Luciferase plasmid at 1 μg/μL and 158 μL WT plasmid DNA at 1 μg/μL (175 μg total DNA) were mixed by flicking. In a new 15 mL tube, 5.25 mL OptiMEM was mixed with 17 μL Firefly Luciferase plasmid at 1 μg/μL and 158 μL G2019S plasmid DNA at 1 μg/μL (175 μg total DNA) were mixed by flicking. X-tremeGene HP was mixed thoroughly using a vortex. Next, 175 μL was added to each tube and flicked to mix. Both tubes were left to incubate for 30 minutes at room temperature.
(§3) While the transfection mixes were incubating, HEK293 cells (acquired from ATCC; ATCC CRL-1573) were harvested with trypsin. Once cells are detached, the cells were resuspended in 12 mL OptiMEM+5% FBS and transferred to a 50 mL tube. The cells were mixed well and counted. Using OptiMEM+5% FBS, the cells were diluted in two 250 mL conical tubes at 0.71×10^6 cells/mL in 70 mL. One tube was labeled “WT” and the other “G2019S”. The WT and G2019S transfection mixes were added dropwise to the corresponding 250 mL tubes. The tubes were mixed first by pipetting then by swirling. The tubes were incubated at room temperature for at least 5 minutes.
(§4) Each tube was swirled before dispensing and after every three plates. Seventy microliters of cells were dispensed with WT or G2019S DNA to seven plates each. Three plates of each were tested with compound plate one (preparation described below) and three plates of each were tested with compound plate two (preparation described below). The first plate from each set served as a “prime” plate and was not used to test compounds. Each plate was incubated in the hood for 10 minutes before placing in the 37° C. incubator for 24 hours.
(§5) Preparation of Compound and Assay Plates. Two compound plates were made using 96 well polypropylene plates. Compounds were made up at 10 mM and were diluted to 1 mM in 30 μL. Each dose response curve included a well of DMSO, as a negative control and for normalization, and a well of 0.5 μM of Exemplary Compound 4 as a positive control. In addition to seven test compounds, each plate also included a dose response of Exemplary Compound 4. The compound plates were spun down along at 1200 rpm for 2 minutes.
(§6) The two compound plates were then mixed and 2 μL was diluted in intermediate plates having 248 μL of Opti-Mem in each well. Next, 10 μL diluted compounds from the intermediate plates were added to each test plate (three WT and three G2019S plates per compound plate for a total of 12 assay plates). The plates were incubated for 24 hours at 37° C.
(§7) All assay plates and all Nano-Glo Dual-Luciferase Reporter Assay System components (except for the DLR substrate) were equilibrated to room temperature. Next, the luciferase buffer was mixed with the lyophilized amber bottle until fully dissolved, and 75 μL of the luciferase mixture was added to each well of each assay plate. The assay plates were incubated for 10 minutes at room temperature with shaking for at least 5 minutes, and then read on a plate reader.
(§8) Developing Plates and Analyzing Data. One milliliter of DLR substrate and 1 mL LgBiT Protein were added to the Stop and Glo buffer, and 75 μL of the mixture was added to each well of each plate. Optically clear seals were added to each plate and each plate was incubated for 20 minutes with shaking for at least 10 minutes, and then read on a plate reader. […]

[2] = target: T2, wildtype LRRK2 (Homo sapiens, UniProt Q5S007); test: LRRK2 degradation assay, wildtype LRRK2-HiBit expressed from plasmid in HEK293 cells; assay type: cell-based; details: HEK293 cells transfected with HiBit-tagged wildtype LRRK2, 24 hours compound incubation; for Dmax: read-out: **WT Dmax (%); for DC50: read-out: *WT DC50
T2 construct: expressed in transfected cells; host or cells: HEK293 (ATCC CRL-1573), transient transfection, ubiquitin promoter
T2 sequence (Q5S007 whole entry): as the sequence (Q5S007 whole entry G2019S) above, with S2019G counted along it
Experimental: as §1, §2, §3, §4, §5, §6, §7, §8

Row | Structure (SMILES) | DC50 [1] [µM] | Dmax [1] [%] | Dmax [2] [%] | DC50 [2] [µM]
1 | C[C@H]1CN(c2cc(-c3n[nH]c4ccc(OC(C)(C)C)cc34)ncn2)CCN1CCOCCOCCOCCOc1ccc2c(c1)C(=O)N(C1CCC(=O)NC1=O)C2=O (stereo partly drawn) [compound 16, 5-{2-[2-(2-{2-[(2S)-4-{6-[5-(tert-butoxy)-1H-indazol-3-yl]pyrimidin-4-yl}-2-methylpiperazin-1-yl]ethoxy}ethoxy)ethoxy]ethoxy}-2-(2,6-dioxopiperidin-3-yl)-2,3-dihydro-1H-isoindole-1,3-dione] | ≥ 0.1 | < 50 | < 50 | ≥ 0.1
2 | CC(C)Oc1ccc2[nH]nc(-c3cc(N4CCN(CCOCCC#CCN5CCN(c6ccc7c(c6)C(=O)N(C6CCC(=O)NC6=O)C7=O)CC5)[C@@H](C)C4)ncn3)c2c1 (stereo partly drawn) [compound 34, 2-(2,6-dioxopiperidin-3-yl)-5-[4-(5-{2-[(2S)-2-methyl-4-{6-[5-(propan-2-yloxy)-1H-indazol-3-yl]pyrimidin-4-yl}piperazin-1-yl]ethoxy}pent-2-yn-1-yl)piperazin-1-yl]-2,3-dihydro-1H-isoindole-1,3-dione] | ≥ 0.1 | 50 to 70 | ≥ 70 | 0.05 to 0.1
3 | CC(C)Oc1ccc2[nH]nc(-c3cc(N4CCN(CCOCCN5CCN(c6ccc7c(c6)C(=O)N(C6CCC(=O)NC6=O)C7=O)CC5)[C@@H](C)C4)ncn3)c2c1 (stereo partly drawn) [compound 22, 2-(2,6-dioxo-3-piperidyl)-5-[4-[2-[2-[(2S)-4-[6-(5-isopropoxy-1H-indazol-3-yl)pyrimidin-4-yl]-2-methyl-piperazin-1-yl]ethoxy]ethyl]piperazin-1-yl]isoindoline-1,3-dione] | 0.01 to 0.05 | < 50 | < 50 | 0.01 to 0.05
4 | CC(C)Oc1ccc2[nH]nc(-c3cc(N4CCN(CCN(C)CCCN5CCN(c6ccc7c(c6)C(=O)N(C6CCC(=O)NC6=O)C7=O)CC5)[C@@H](C)C4)ncn3)c2c1 (stereo partly drawn) [compound 36, 2-(2,6-dioxopiperidin-3-yl)-5-(4-{3-[methyl({2-[(2S)-2-methyl-4-{6-[5-(propan-2-yloxy)-1H-indazol-3-yl]pyrimidin-4-yl}piperazin-1-yl]ethyl})amino]propyl}piperazin-1-yl)-2,3-dihydro-1H-isoindole-1,3-dione] | 0.01 to 0.05 | ≥ 70 | ≥ 70 | 0.01 to 0.05
5 | C[C@H]1CN(c2cc(-c3n[nH]c4ccc(OC5(C)CC5)cc34)ncn2)CCN1CCN1CCC(CN2CCN(c3ccc4c(c3)C(=O)N(C3CCC(=O)NC3=O)C4=O)CC2)CC1 (stereo partly drawn) [compound 29, 2-(2,6-dioxopiperidin-3-yl)-5-{4-[(1-{2-[(2S)-2-methyl-4-{6-[5-(1-methylcyclopropoxy)-1H-indazol-3-yl]pyrimidin-4-yl}piperazin-1-yl]ethyl}piperidin-4-yl)methyl]piperazin-1-yl}-2,3-dihydro-1H-isoindole-1,3-dione] | < 0.01 | ≥ 70 | ≥ 70 | < 0.01
6 | CC(C)Oc1ccc2[nH]nc(-c3cc(N4CCN(CC(F)(F)C5CCN(CC6CCN(c7ccc8c(c7)C(=O)N(C7CCC(=O)NC7=O)C8=O)CC6)CC5)CC4)ncn3)c2c1 (stereo not shown) [compound 40, 5-(4-((4-(1,1-difluoro-2-(4-(6-(5-isopropoxy-1H-indazol-3-yl)pyrimidin-4-yl)piperazin-1-yl)ethyl)piperidin-1-yl)methyl)piperidin-1-yl)-2-(2,6-dioxopiperidin-3-yl)isoindoline-1,3-dione] | 0.01 to 0.05 | 50 to 70 | ≥ 70 | 0.01 to 0.05
7 | CC(C)Oc1ccc2[nH]nc(-c3cc(N4CCO[C@@H](CCN5CCN(CC6CCN(c7ccc8c(c7)C(=O)N(C7CCC(=O)NC7=O)C8=O)CC6)CC5)C4)ncn3)c2c1 (stereo partly drawn) [compound 49, 2-(2,6-dioxopiperidin-3-yl)-5-(4-((4-(2-((S)-4-(6-(5-isopropoxy-1H-indazol-3-yl)pyrimidin-4-yl)morpholin-2-yl)ethyl)piperazin-1-yl)methyl)piperidin-1-yl)isoindoline-1,3-dione] | < 0.01 | 50 to 70 | ≥ 70 | < 0.01
8 | CC(C)Oc1ccc2[nH]nc(-c3cc(N4CCN(CCN5CC(OCCOc6ccc7c(c6)C(=O)N(C6CCC(=O)NC6=O)C7=O)C5)[C@@H](C)C4)ncn3)c2c1 (stereo partly drawn) [compound 32, 2-(2,6-dioxopiperidin-3-yl)-5-{2-[(1-{2-[(2S)-2-methyl-4-{6-[5-(propan-2-yloxy)-1H-indazol-3-yl]pyrimidin-4-yl}piperazin-1-yl]ethyl}azetidin-3-yl)oxy]ethoxy}-2,3-dihydro-1H-isoindole-1,3-dione] | ≥ 0.1 | < 50 | < 50 | ≥ 0.1

The next lines start with the values.

Row | DC50 [1] [µM] | Dmax [1] [%] | Dmax [2] [%] | DC50 [2] [µM] | Structure (SMILES)
9 | ≥ 0.1 | < 50 | < 50 | ≥ 0.1 | CC(C)Oc1cc2c(-c3cc(N4CCN(CCOCCOCCOCCOc5ccc6c(c5)C(=O)N(C5CCC(=O)NC5=O)C6=O)[C@@H](C)C4)ncn3)n[nH]c2cc1F (stereo partly drawn) [compound 15, 2-(2,6-dioxopiperidin-3-yl)-5-{2-[2-(2-{2-[(2S)-4-{6-[6-fluoro-5-(propan-2-yloxy)-1H-indazol-3-yl]pyrimidin-4-yl}-2-methylpiperazin-1-yl]ethoxy}ethoxy)ethoxy]ethoxy}-2,3-dihydro-1H-isoindole-1,3-dione]
10 | 0.01 to 0.05 | 50 to 70 | 50 to 70 | ≥ 0.1 | CC(C)Oc1ccc2[nH]nc(-c3ccnc(N4CCN(CCOCCOCCOCCOc5ccc6c(c5)C(=O)N(C5CCC(=O)NC5=O)C6=O)[C@@H](C)C4)c3)c2c1 (stereo partly drawn) [compound 11, 2-(2,6-dioxopiperidin-3-yl)-5-{2-[2-(2-{2-[(2S)-2-methyl-4-{4-[5-(propan-2-yloxy)-1H-indazol-3-yl]pyridin-2-yl}piperazin-1-yl]ethoxy}ethoxy)ethoxy]ethoxy}-2,3-dihydro-1H-isoindole-1,3-dione]
11 | < 0.01 | ≥ 70 | ≥ 70 | < 0.01 | C[C@H]1CN(c2cc(-c3n[nH]c4ccc(OC5(C)CC5)cc34)ccn2)CCN1CCOCCOCCOCCOc1ccc2c(c1)C(=O)N(C1CCC(=O)NC1=O)C2=O (stereo partly drawn) [compound 12, 2-(2,6-dioxopiperidin-3-yl)-5-{2-[2-(2-{2-[(2S)-2-methyl-4-{4-[5-(1-methylcyclopropoxy)-1H-indazol-3-yl]pyridin-2-yl}piperazin-1-yl]ethoxy}ethoxy)ethoxy]ethoxy}-2,3-dihydro-1H-isoindole-1,3-dione]
12 | < 0.01 | 50 to 70 | ≥ 70 | < 0.01 | C[C@@H]1CN(c2cc(-c3n[nH]c4ccc(OC5(C)CC5)cc34)ncn2)C[C@H](C)N1CCOCCOCCOCCOc1ccc2c(c1)C(=O)N(C1CCC(=O)NC1=O)C2=O (stereo partly drawn) [compound 7, 5-{2-[2-(2-{2-[(2R,6S)-2,6-dimethyl-4-{6-[5-(1-methylcyclopropoxy)-1H-indazol-3-yl]pyrimidin-4-yl}piperazin-1-yl]ethoxy}ethoxy)ethoxy]ethoxy}-2-(2,6-dioxopiperidin-3-yl)-2,3-dihydro-1H-isoindole-1,3-dione]
13 | < 0.01 | < 50 | 50 to 70 | < 0.01 | C[C@H]1CN(c2cc(-c3n[nH]c4ccc(OC5(C)CC5)cc34)ncn2)CCN1CCOCCOc1ccc2c(c1)C(=O)N(C1CCC(=O)NC1=O)C2=O (stereo partly drawn) [compound 2, 2-(2,6-dioxopiperidin-3-yl)-5-(2-{2-[(2S)-2-methyl-4-{6-[5-(1-methylcyclopropoxy)-1H-indazol-3-yl]pyrimidin-4-yl}piperazin-1-yl]ethoxy}ethoxy)-2,3-dihydro-1H-isoindole-1,3-dione]
